Assay results taken from a melting point compilation (Tetko et al.; mined from patent text by program, amines drawn as free bases though some values may be those of a salt).

Structure (SMILES) | melting point
CCCCOCCOc1ccc(-c2ccc3c(c2)C=C(C(=O)Nc2ccc(/C(Cc4nccn4CCC)=N/OC)cc2)CCN3CC(C)C)cc1 | 159 to 161 °C
CC(C)CCSc1cc(C(=O)O)cc(N)c1Oc1ccccc1 | 132 to 133 °C
O=C(O)C1Nc2ccccc2-c2c([N+](=O)[O-])cnn21 (stereo not drawn) | 203 to 205 °C
N#Cc1c2[nH]c(C(=O)O)cc(=O)c2cc2c(=O)cc(C(=O)O)[nH]c12 | > 320 °C
Cc1ccc(-c2c(NS(=O)(=O)c3ccc(C(C)(C)C)cc3)ncnc2OCCOc2ncc(C=O)cn2)cc1 | 191 to 193 °C
CC1C(=O)N(Cc2ccccc2)C(=S)N1c1ccc(Oc2ccccc2)cc1 (stereo not drawn) | 62 °C
CCCCC1(N(C)C)CCC(c2[nH]c3ccccc3c2CCC)CC1 (stereo not drawn) | 127 to 130 °C
CCOC(=O)Cc1c(CCc2ccc(O)cc2)oc2ccc(C#N)cc12 | 134 to 136 °C
CC(C)(CO)Oc1ccc(COc2ccc(Cl)cc2)cc1 | 67 to 70 °C
CCOC(=O)c1c(N2CCCC2)c2cnc(-c3ccccc3)nc2n(CC)c1=O | 149 to 153 °C
O=C(CC(=O)C1CC1)c1ccncn1 | 81 to 84 °C
CN1CC[C@]2(c3ccccc3)CCCC[C@@]2(O)C1 (relative stereo) | 84 to 87 °C
CCCCOc1cc(C(=O)O)n(Cc2ccc(C(F)(F)F)cc2)n1 | 128 to 129 °C
COC(=O)COc1cccc2c(CCS(=O)CCc3ccccc3)c(C)oc12 (stereo not drawn) | 77 to 78 °C
CCCC(=O)c1cc2ccccc2cc1C(=O)O | 109 °C
OC1(Cc2nc[nH]n2)CCCc2ccccc21 (stereo not drawn) | 105 to 108 °C
FCc1ccc(-c2ccc(-c3cn([C@H]4CN5CCC4CC5)nn3)s2)cc1 | 199 °C
CC(N=Cc1ccc(O)cc1)C1CCCCC1 (single isomer, unassigned; (+)) | 130 to 132 °C
O=C(c1ccccc1)N1CCN(Cc2ccccc2)CCN1C(=O)c1ccccc1 | 135 to 138 °C
OC1CCC(Nc2nc(Cl)nc(Cl)n2)CC1 (stereo not drawn) | 120 °C
CC(C)n1nc(-c2cnc(N)nc2-c2ccc(C(F)(F)F)cc2)ccc1=O | 209 to 210 °C
CC[C@H](C)[C@H](OCc1ccccc1)[C@H]1[C@H]([N+](=O)[O-])[C@H](C2CCCCC2)N[C@@H]1C(=O)O | 194 to 196 °C
CCCC(=O)OCC(=O)C1(OC(=S)CC)CCC2C3CC(C)C4=CC(=O)C=CC4(C)C3C(O)CC21C (stereo not drawn) | 126 to 128 °C

Structure (SMILES) | melting point
N#CCCNC(=O)c1n[nH]cc1NC(=O)c1cc(Cl)ccn1 | 261 to 263 °C
CCCCNc1ncnc2c1ncn2CCCN1CCC(NC(=O)c2ccccc2)CC1 | 190 to 192 °C
CN1Cc2c(C#Cc3ccccc3)ncn2-c2cccc(Br)c2C1=O | 207 to 209 °C
Cc1ccccc1NNC1=NCCS1 | 126 to 127 °C
CCC(=O)N[C@@H](C)C(=O)N1CCC[C@H]1C(=O)NC | 163 to 165 °C
O=C1C=C(c2ccccc2)S(=O)(=O)C(c2cccs2)=C1 | 162 to 164 °C
O=C(O)C(=O)c1ccc(OCCCOc2ccccc2)cc1 | 50 to 52 °C
CC(C)Oc1ccc(N2CCCN(c3cc[nH]c(=S)c3C#N)CC2)cc1 | 216 to 218 °C
COc1ccccc1Oc1c(NS(=O)(=O)c2ccc(C)cn2)nc(-c2ccncc2)nc1OC | 225 to 226 °C
Cn1c(-c2ccc(Br)cc2)c(OCCOc2ccc(C=C3SC(=O)NC3=O)cc2)c(=O)c2ccccc21 | 151 to 154 °C
COc1nc(C)cnc1NS(=O)(=O)c1cccnc1-c1ccc(C(C)C)cc1 | 74 to 75 °C
CC(C)(C)C(NC(=O)c1cc(Cl)cc(Cl)c1)Nc1c(Nc2cccnc2Cl)c(=O)c1=O (stereo not drawn) | 233 to 234 °C
CCCN(Cc1ccc(-c2ccccc2-c2nnn[nH]2)cc1)c1ncccc1C(=O)OC | 146 to 147 °C
C/C(=C(\C#N)C(N)=S)N1CCCN(c2cccc(C)c2)CC1 | 144 to 148 °C
CCCC12CCC(=O)C=C1c1c(cc(CC(=O)O)c(Cl)c1Cl)O2 (stereo not drawn) | 248 to 250 °C
CCC(COC)Nc1nc(C)nc(Cl)c1N (stereo not drawn) | 128 to 130 °C
CCCCCCCCCCCCNC(=O)c1cc(Br)c(OCCn2cnnn2)c(-c2cccc(OC)c2)c1 | 100 to 101 °C
CSc1cccc(Oc2ncc(F)cc2C(=O)N[C@@H]2CCCC[C@H]2CO)c1 (relative stereo) | 128 to 129 °C
O=C1COc2ccc(C3=CN=C(c4ccccc4)SC3c3ccccc3)cc2N1 (stereo not drawn) | 231 to 233 °C
COc1cccc(N(CC(=O)OC(C)(C)C)C(=O)CNC(=O)Nc2cccc(C)c2)c1 | 60 °C
O=C(O)CCCCCCCNS(=O)(=O)c1ccc(Br)cc1 | 115 to 116 °C
COc1cccc(COc2ccc(-c3cccc(NC(Cc4ccccc4)C(=O)O)c3)cc2)c1 (stereo not drawn) | 159 to 162 °C
CCCCc1cccc(-c2cn(C)cc(-c3ccccc3)c2=O)c1 | 87 to 89 °C

Structure (SMILES) | melting point
Nc1c(Cl)cc(C(O)CNCCCCCCOCCCCCCc2ncccn2)cc1Cl (stereo not drawn) | 55 to 57 °C
COc1cc(C=C2C(=O)CCc3ccc([N+](=O)[O-])cc32)c([N+](=O)[O-])cc1OC | 125 °C
Cc1cc2[nH]c(C)nc(NCCN3CCOCC3)c-2n1 | 237 to 238 °C
CN(CCN[C@H]1CC[C@H](c2ccccc2)CC1)c1ccc2[nH]c(=O)oc2c1 | 229 to 234 °C
CN1CC23CC(c4ccccc4C2C1=O)c1ccccc13 (stereo not drawn) | 141 to 146 °C
CC1(C)CSCC(C)(C)c2[nH]c(-c3ccccc3)nc21 | 223 to 224 °C
CC(N)C(=O)Nc1coc2cc(NS(C)(=O)=O)c(Oc3ccccc3)cc2c1=O (stereo not drawn) | 111 to 113 °C
CC(NC(=O)C(F)c1cc(F)cc(F)c1)C(=O)NC1N=C(c2ccccc2)c2ccccc2N(C)C1=O (stereo not drawn) | 119 to 120 °C
Nc1ccc(C(c2ccc(N)cc2)(c2ccc(I)cc2)C(F)(F)F)cc1 | 171 to 172 °C
CC(CC1COC(c2ccc(C(=O)Nc3ccc(C#N)cc3)cc2)OC1)C(O)(Cn1cncn1)c1ccc(F)cc1F (stereo not drawn) | 159 °C
CN1C(=O)C(C(=O)Nc2ccc(F)cc2)S(=O)(=O)c2cc(F)ccc21 (stereo not drawn) | 153 to 155 °C
CCOC(=O)c1cn(-c2nccs2)c2nc(Cl)cc(NCc3ccccc3)c2c1=O | 141 to 143 °C
COc1cc(OC)c(-c2cc3ccccc3n2C)cc1C=CC(=O)c1ccc(S(=O)(=O)NO[Si](C)(C)C(C)(C)C)cc1 | 129 to 131 °C
CCCCCCCCc1ccc(C(O)CC(CO)(CO)NC(C)=O)cc1 (stereo not drawn) | 118 to 119 °C
CC(C)(C)NC(=O)c1ccncc1 | 115 to 117 °C
Cc1ccc(C=Nc2c(-c3ccccc3C)nc3c4ccccc4ccn23)cc1 | 160 °C
C=CCOc1ccc(C(=O)Oc2ccc(OCCCCOC(=O)C(=C)C)cc2)cc1 | 62 to 63 °C
Cn1cc(S(C)=O)c(=O)c2sccc21 (stereo not drawn) | 199 °C
COc1ccccc1N1CCN(NC(=O)c2ccc(Cl)c(S(N)(=O)=O)c2)CC1 | 232 to 235 °C
CCCC(CCC)(CC(=O)O)CC(=O)O | 107 °C
CCC(C)C(NC(=O)OC)C(=O)NN(Cc1ccc(-c2nccs2)cc1)CC(O)C(Cc1ccccc1)NC(=O)C(NC(=O)OC)C(C)C (stereo not drawn) | 227 to 229 °C
O=C(c1cnc(N2CCCC2)c(OCC2CCCC2)n1)N1CCCCC1 | 61 to 62 °C
